The text below walks through data of article PMC7114147 (Antiviral Research, 2013).

In one experiment the test system is A/X-31 (A/H3N2). It is filed as cell-based, influenza A virus. As to conditions: read-out: Antiviral activity (EC50) A/X-31.
Another experiment concerns A/PR/8/34 4 #8 cl3. The experiment can be described thus: microbe, parasite or virus in culture. It is filed as cell-based. As to conditions: Influenza A virus, PR/8, pH 5.7, read-out: Antiviral activity (EC50), 4 #8 cl3.
Experiment [1] relates to A/Virginia/ATCC3/2009 (2009 pandemic A/H1N1). It is filed as cell-based, influenza A virus. The conditions noted are these: read-out: Antiviral activity (EC50) A/2009pan.
The subject of the next experiment is A/PR/8/34 6c #8 cl3. The experiment can be described thus: microbe, parasite or virus in culture. It counts as cell-based. The conditions noted are these: Influenza A virus, PR/8, pH 5.5, read-out: Antiviral activity (EC50), 6c #8 cl3.
In a further experiment the target is V27A mutant A/M2 (Influenza A virus, UniProt P0DOF5, V27A). It counts as biochemical, influenza A/Udorn/72.
Another experiment has as its target S31N mutant A/M2 (Influenza A virus, UniProt P0DOF5, S31N). It is filed as biochemical, influenza A/Udorn/72.
The test system of a further experiment is A/H1N1 (A/PR/8/34). The experiment can be described thus: microbe, parasite or virus in culture. The conditions noted are these: read-out: Antiviral activity (EC50) A/PR/8/34. It counts as cell-based, influenza A virus.

Take `CC(N)C12CC3CC(CC(C3)C1)C2` (stereo not drawn) [Rimantadine, rimantadine]: the EC50 with A/X-31 (A/H3N2) is 7 ± 1.7 µM; in the experiment on A/PR/8/34 4 #8 cl3, more than 100 µM; in experiment [1], not below 158 µM; with A/PR/8/34 6c #8 cl3, more than 100 µM. For the same compound, at V27A mutant A/M2, the “Activity against V27A mutant A/M2” value was “inactive”. The “Activity against S31N mutant A/M2” value at S31N mutant A/M2 was “inactive”.

On to `CC(=O)N[C@H]1[C@H]([C@H](O)[C@H](O)CO)OC(C(=O)O)=C[C@@H]1N=C(N)N` [Zanamivir], for which the figures for the EC50 in the experiment with A/X-31 (A/H3N2) and in the experiment on A/H1N1 (A/PR/8/34) were 0.16 ± 0.05 µM and 6 ± 1.3 µM, respectively.

For `NC(=O)c1ncn([C@@H]2O[C@H](CO)[C@@H](O)[C@H]2O)n1` [Ribavirin], the EC50 in the experiment on A/X-31 (A/H3N2) was 8.8 ± 0.2 µM; with A/PR/8/34 4 #8 cl3, 26 ± 4 µM; in the experiment with A/H1N1 (A/PR/8/34), 8.7 ± 0.7 µM; in experiment [1], 11 ± 1 µM; in the experiment with A/PR/8/34 6c #8 cl3 it was 24 ± 3 µM.

Consider `C1=CC2C3C4C5C=CC4C24CNCC54C13` [Compound 3, 3-azahexacyclo[7.6.0.0^1,5.0^5,12.0^6,10.0^11,15]pentadeca-7,13-diene], for which the “Activity against V27A mutant A/M2” value at V27A mutant A/M2 was “inactive”. In addition, at S31N mutant A/M2, the “Activity against S31N mutant A/M2” value was “inactive”.

As to `CCC(CC)O[C@@H]1C=C(C(=O)O)C[C@H](N)[C@H]1NC(C)=O` [Oseltamivir carboxylate], the EC50 in the experiment with A/X-31 (A/H3N2) was 0.11 ± 0.05 µM; with A/H1N1 (A/PR/8/34), 21 ± 9 µM.

As to `NC12CC3CC(CC(C3)C1)C2` [Amantadine, amantadine], the EC50 in the experiment on A/X-31 (A/H3N2) is 61 ± 12 µM; in the experiment on A/PR/8/34 4 #8 cl3, more than 250 µM; in experiment [1] it was 137 ± 10 µM; in the experiment on A/PR/8/34 6c #8 cl3, more than 250 µM.
